Results on 4 compounds are retold here after patent publication US6699660B2, “Immediate early genes and methods of use therefor” (The Johns Hopkins University School of Medicine, priority 1998, dated 2004).

Experiment [1] has as its system c-fos mRNA. Nature of the experiment: 3-NP ischemia model, Northern blot of total brain RNA. It is filed as in vivo, rat. Particulars: 3-NP 20 mg/kg i.p., three hours post-injection, total brain RNA without cerebellum; PSL - background; untreated 18.1.
For experiment [2], the system named is GAPDH mRNA. Described as above. It is filed as in vivo, rat. Particulars: 3-NP 20 mg/kg i.p., three hours post-injection, total brain RNA without cerebellum; PSL - background; untreated 487.02. On the procedure: (§1) In another study, the expression pattern of L100 and L119 was determined using two models for ischemia. Briefly, neurons degenerate in brain and spinal cord after acute insults (e.g., stroke, cardiac arrest, and trauma) and during progressive, adult-onset diseases (e.g., amyotrophic lateral sclerosis, and Alzheimer's disease). Impaired energy metabolism plays an important role in neuronal cell death after brain ischemia, and apoptosis has been implicated in cell death induced by metabolic impairment. The irreversible inhibitor of succinate dehydrogenase in the mitochondria, 3-nitroproplonic acid (3-NP), inhibits oxidative phosphorylation and causes intracellular hypoxia. Thus, one model used to study ischemia involves intrastriatal injections of 3-NP, which is known to produce selective cell death similar to that observed in transient ischemia and Huntington's disease (McLaughlin et al., J. Neurochem 70:2406-2415 (1998)). The other model is a global ischemic paradigm that involves a 15 minute insult by complete occlusion of the carotis.
(§2) In the 3-NP study, 220-300 g Wistar rats were intraperitoneally injected with 20 mg/kg body weight. Three hours post-injections, the brain was removed and total RNA prepared. In the global ischemia study, 220-300 g Wistar rats were received a 15 minute insult (bilateral occlusion of the Carotis/arterial pressure=35 mm Hg). One hour later, the rats received a reperfusion followed by immediate brain dissection and total RNA preparation. Untreated rats were used as controls for each study. Ten (10) μg of total rat brain RNA (without cerebellum) was loaded per lane and blotted. Probes were prepared from the 3′ untranslated regions of L100 and L119. The Northern blot data was collected using a Phosphoimager (FLA2000 Fuji, Tina software) and expressed as PSL—background.

In experiment [3] the test system is L100 mRNA. The description is as above. The class given is in vivo, rat. Particulars: 3-NP 20 mg/kg i.p., three hours post-injection, total brain RNA without cerebellum; PSL - background; untreated 30.95. On the procedure: as §1, §2
The subject of experiment [4] is L119 mRNA. The description is as above. The class given is in vivo, rat. Particulars: 3-NP 20 mg/kg i.p., three hours post-injection, total brain RNA without cerebellum; PSL - background; untreated 55.48. How it is done: as §1, §2
The subject of experiment [5] is R286 mRNA. Nature of the experiment: PTZ-induced seizures, mRNA expression by Northern blot. The class given is in vivo, rat. The following applies: hippocampus, 6 hour, vs PBS. On the procedure:
(§3) PTZ-induced seizures is a model used to study epilepsy and ischemia. Briefly, 300-350 g male Sprague-Dawley rats were intrapertoneally injected with either 50 mg/kg body weight of PTZ or PBS. Total RNA samples from the hippocampus, cortex, and cerebellum were prepared from treated rats at 20 minutes, 6 hours, and 24 hours post-injection. This RNA then was used to measure mRNA expression by Northern blot analysis. Control mRNA measurements included c-fos and GAPDH. A Phosphoimager FLA2000 (Fuji) was used to analyze the data, which was expressed as the Integral PSL—background PSL (1D evaluation with Aida version 2.0).
(§4) In addition, rats that developed seizures following intraperitoneal injection of kainate or PTZ were analyzed for the expression of R286 mRNA in addition to the mRNA of other LEG clones (Tables III and V).

For experiment [6], the system named is R113 mRNA. The experiment is described as above. It is filed as in vivo, rat. The following applies: hippocampus, 6 hour, vs PBS. How it is done: as §3
Experiment [7] has as its system L100 mRNA. The description is as above. It is filed as in vivo, rat. Particulars: for Fold increase in L100 mRNA expression upon PTZ treatment: vs PBS; for L100 mRNA expression normalized to GADPH expression: Integral PSL - background PSL. On the procedure: as §3
For experiment [8], the system named is L119 mRNA. The description is as above. It is filed as in vivo, rat. The following applies: for Fold increase in L119 mRNA expression upon PTZ treatment: 20 min, vs PBS; for L119 mRNA expression normalized to GADPH expression: 20 min after PTZ 50 mg/kg i.p., Integral PSL - background PSL. How it is done:
as §3

Experiment [9] relates to R286 mRNA. Nature of the experiment: PTZ-induced seizures, in situ hybridization. It is filed as in vivo, rat. How it is done:
(§5) For in situ hybridization, Dig-labeled cRNA probes were used as described elsewhere (Kuner et al., Science 283:5398 (1999)). Specifically, R286 mRNA expression was the highest in the cortex and hippocampus while being moderately high in the cerebellar granule cells, brainstem nuclei, several lateral and medial thalamic nuclei, olfactory bulb, and striatum. […] Briefly, a probe from the 3′ untranslated region of R286 was used to hybridize a Northern blot containing 2 μg polyA^+ RNA from hippocampus from brains of untreated rats as well as rats receiving the multiple MECS treatment. After one day of exposure using the phosphoimager FLA2000 (Fuji), an upregulation of R286 mRNA was detected in the hippocampus (3.72 fold induction) collected four hours after the last MECS treatment. An additional Northern blot analysis using 10 μg total RNA from hippocampus from untreated rats and rats receiving the multiple MECS treatment was performed.
as §4

Experiment [10] relates to R113 mRNA. In words: kainate-induced seizures, mRNA expression by Northern blot and RT-PCR. Particulars: hippocampus, 1.5 hour, vs PBS. It is filed as in vivo, rat. How it is done: (§6) Kainate-induced seizures is a model used to study epilepsy. Briefly, 300-350 g male Sprague-Dawley rats were intrapertoneally injected with either 10 mg/kg body weight of kainate or PBS. RNA samples from the hippocampus, cortex, and cerebellum were prepared from treated rats at 1.5, 6, and 24 hours post-injection. This RNA then was used to measure mRNA expression by Northern blot and RT-PCR analysis. Control mRNA measurements included c-fos, GAPDH, NO-38, and ATF-4 for the Northern blot analysis, and Hsp70, c-jun, Zif268, c-fos, Clathrin, and β-actin for the RT-PCR analysis. A Phosphoimager FLA2000 (Fuji) was used to analyze the data, which was expressed as the Integral PSL—background PSL (1D evaluation with Aida version 2.0).

Experiment [11] has as its system A013 mRNA. The description is as above. It is filed as in vivo, rat. The following applies: hippocampus, 1.5 hour, vs PBS. How it is done:
as §6

In experiment [12] the test system is L100 mRNA. The experiment is described as above. It is filed as in vivo, rat. Particulars: for L100 mRNA expression normalized to GADPH expression: Integral PSL - background PSL; for Fold increase in L100 mRNA expression upon kainate treatment: vs PBS. How it is done:
as §6

Experiment [13] has as its system L119 mRNA. The experiment is described as above. It is filed as in vivo, rat. The following applies: for L119 mRNA expression normalized to GADPH expression: Integral PSL - background PSL; for Fold increase in L119 mRNA expression upon kainate treatment: vs PBS. On the procedure:
as §6

For experiment [14], the system named is L094 mRNA. The description is as above. It is filed as in vivo, rat. Particulars: hippocampus, 1.5 hour, vs PBS. On the procedure:
as §6

Experiment [15] concerns L100 mRNA. Nature of the experiment: kainate-induced seizures, in situ hybridization. The class given is in vivo, rat. Particulars: six hours following kainate injection. How it is done: For in situ hybridization, Dig-labeled cRNA probes were used as described elsewhere (Kuner et al., Science 283:5398 (1999)). […] Specifically, L100 mRNA expression was induced 17.2 fold by the multiple MECS treatment as determined from Northern blot data using total RNA from rat hippocampus (Table I).
as §6

For experiment [16], the system named is R286 mRNA. In words: kainate-induced seizures, in situ hybridization. It is filed as in vivo, rat. How it is done: as §5, §4
Experiment [17] has as its system R010 expression in PC12 cells. Nature of the experiment: NGF treatment of PC12 cells, R010 expression. The class given is cell-based.
[18] abbreviates: cortex, 6 hour after kainate 10 mg/kg i.p.
The mark [19] stands for this setting: cortex, 24 hour after kainate 10 mg/kg i.p.
Setting [20] is: hippocampus, 1.5 hour after kainate 10 mg/kg i.p.
Where [21] appears, read: hippocampus, 6 hour after kainate 10 mg/kg i.p.
Setting [22] is: hippocampus, 24 hour after kainate 10 mg/kg i.p.

Regarding `O=C(O)CC[N+](=O)[O-]` [3-NP, 3-nitroproplonic acid], the “c-fos mRNA expression after 3-NP treatment” value in experiment [1] is on record as 26.64. Moreover, in experiment [2], the “GAPDH mRNA expression after 3-NP treatment” value came out at 587.51. Further, the “L100 mRNA expression after 3-NP treatment” value in [3] is reported as 43.82. In [4], the “L119 mRNA expression after 3-NP treatment” value stood at 41.94.

Regarding `C1CCc2nnnn2CC1` [PTZ, pentylenetetrazole], in [5], the “Fold increase in R286 mRNA expression upon PTZ treatment” value is reported as 2.6 fold. In [6], the “Fold increase in R113 mRNA expression upon PTZ treatment” value was determined as 2.0 fold. Moreover, the “expression of L100 mRNA when acute seizures were induced by PTZ treatment” value in experiment [7] (PTZ 50 mg/kg i.p.) is “strongly upregulated”. The “Fold increase in L100 mRNA expression upon PTZ treatment” value in experiment [7] (cortex, 20 min) was found to be 2.84 fold; in experiment [7] (cortex, 6 hour), 3.22 fold; in experiment [7] (cortex, 24 hour), 1.55 fold; in [7] (hippocampus, 20 min) it was 3.1 fold; in experiment [7] (hippocampus, 6 hour) it was 2.33 fold; in [7] (hippocampus, 24 hour), 1.97 fold. The “L100 mRNA expression normalized to GADPH expression” value turned out to be 2719 in experiment [7] (cortex, 20 min after PTZ 50 mg/kg i.p.); 3740 in [7] (cortex, 6 hour after PTZ 50 mg/kg i.p.); 1825 in [7] (cortex, 24 hour after PTZ 50 mg/kg i.p.); 1637 in experiment [7] (hippocampus, 20 min after PTZ 50 mg/kg i.p.); 1992 in [7] (hippocampus, 6 hour after PTZ 50 mg/kg i.p.); 1903 in [7] (hippocampus, 24 hour after PTZ 50 mg/kg i.p.). Further, the “Fold increase in L119 mRNA expression upon PTZ treatment” value in experiment [8] (cortex) is 2.78 fold; in experiment [8] (hippocampus), 2.82 fold. Besides, the “L119 mRNA expression normalized to GADPH expression” value turned out to be 1605 in [8] (cortex) and 965 in experiment [8] (hippocampus). The “R286 mRNA expression by in situ hybridization” value in experiment [9] (20 minutes post-PTZ injection) is on record as “no upregulation”; in [9] (6 hours post-PZT injection, hippocampal pyramidal cell layer, cortex, thalamus, cerebellar Purkinje cell layer), “mildly upregulated”.

Turning to `C=C(C)[C@H]1CN[C@H](C(=O)O)[C@H]1CC(=O)O` [kainate], the “Fold increase in R113 mRNA expression upon kainate treatment” value in experiment [10] is 2.0 fold. The “Fold increase in A013 mRNA expression upon kainate treatment” value in experiment [11] turned out to be 9.8 fold. The “L100 mRNA expression normalized to GADPH expression” value in [12] (setting [18]) was found to be 290; in experiment [12] (setting [19]), 131; in experiment [12] (setting [20]), 85251; in experiment [12] (setting [21]), 15444; in experiment [12] (setting [22]), 16551. Also, the “Fold increase in L100 mRNA expression upon kainate treatment” value came to 3.58 fold in experiment [12] (cortex, 6 hour); 1.52 fold in [12] (cortex, 24 hour); 18.44 fold in experiment [12] (hippocampus, 1.5 hour); 1.97 fold in experiment [12] (hippocampus, 6 hour); 4.20 fold in experiment [12] (hippocampus, 24 hour). The “expression of L100 mRNA when acute seizures were induced by kainate treatment” value in experiment [12] (kainate 10 mg/kg i.p.) was “strongly upregulated”. Moreover, the “L119 mRNA expression normalized to GADPH expression” value in experiment [13] (setting [18]) turned out to be 1262; in experiment [13] (setting [19]), 505; in [13] (setting [20]) it was 69982; in experiment [13] (setting [21]), 11519; in experiment [13] (setting [22]) it was 12944. Moreover, the “Fold increase in L119 mRNA expression upon kainate treatment” value in experiment [13] (hippocampus, 1.5 hour) is 24.85 fold; in experiment [13] (hippocampus, 6 hour) it was 2.51 fold; in experiment [13] (hippocampus, 24 hour) it was 4.64 fold. Besides, the “Fold increase in L094 mRNA expression upon kainate treatment” value in [14] is reported as 3.6 fold. In addition, the “L100 mRNA regulation by in situ hybridization” value in experiment [15] (dentate gyrus, CA3 and CA4 of hippocampus, entorrhinal cortex, cingulum, fimbria) is “strong upregulation”; in experiment [15] (thalamic nuclei, temporal, parietal, frontal, medial orbital and cingulate cortex, cerebellar granule cells) it was “Moderate upregulation”. Also, the “R286 mRNA expression by in situ hybridization” value in experiment [16] (1.5 hours post-kainate injection) is “no upregulation”; in experiment [16] (6 hours post-kainate injection, hippocampal pyramidal cell layer, cortex, thalamus, cerebellar Purkinje cell layer), “mildly upregulated”.

On to NGF: NGF used to treat PC12 cells, for which, in [17], the “R010 expression in vitro” value is on record as “rapidly induced”.
